We go through one substance from US6262023A, “WD-40 derived peptides and uses thereof” (The Board of Trustees of the Leland Stanford Junior …, priority 1995, dated 2001).

The test system of test [1] is βPKC. Description: βPKC translocation (soluble vs particulate fraction) in Xenopus oocytes. The format is cell-based. As to conditions: 50 μM peptide microinjected. On the procedure:
Insulin causes the translocation of βPKC, but not other PKC isozymes, from a cytosolic form to a membrane-associated form, as evidenced by the relative levels of PKC in the soluble vs. the particulate fraction of oocyte homogenate. To assess the effects of RACK1 WD-40-derived peptides on insulin-induced PKC translocation, 50 nl of a 20 mM NaCl solution containing the indicated peptides were microinjected into Xenopus oocytes. The oocytes were then homogenized, and the relative amount of PKC in the soluble and particulate fractions was assayed. The protocol followed was a modification of a method described by Smith, et al. (1992).
Batches of 50 oocytes were microinjected with either peptide rVI (SEQ ID NO:7; 50 μM; lanes 3, 4), peptide I (SEQ ID NO:1; 50 μM, lanes 7, 8) or injection solution (NaCl 20 mM, lanes 1,2 and 5,6). Homogenates from each batch were prepared 60 minutes after microinjection (lanes 1-4) or 60 minutes after addition of insulin (lanes 5-8). The homogenates were centrifuged at 10,000 g for 3 minutes, the upper layer (containing fat and yolk) was removed, and the remainder was frozen at -70° C. […] The amount of PKC in each fraction was determined by Western blot using anti-βPKC antibodies (1:1000 dilution; Seikagaku Kogyo, Tokyo, Japan). Bound primary antibodies were detected by chemiluminescence as described in Example 3, part C.

The target in test [2] is βPKC (Rattus norvegicus, UniProt P68403). Description: Sensitivity of βPKC to Arg-C endopeptidase (nicking). The class given is biochemical. The arrangement: All the solutions contained 5 nM rat brain PKC in peptide overlay buffer; from tissue; host or cells: rat brain. As to conditions: 2.5 μg/ml PS and 50 μM CaCl2; peptide 10 μM; Arg-C 5 units/ml. From the text:
Upon activation of PKC, a pseudosubstrate autoinhibitory sequence at the N-terminus of the molecule dissociates from the catalytic site and becomes sensitive to endopeptidase Arg-C (Orr, et al.). In the absence of PKC activators, exposure of the 80 kDa βPKC to endopeptidase Arg-C has no effect on the enzyme (see FIG. 7, lane 1). In the presence of the PKC activators PS, DG and calcium, however, exposure of βPKC to Arg-C results in a "nicking" of the PKC (i.e. limited proteolysis generating a 78 kDa fragment and several small fragments (see FIG. 7, lane 2)). Continued exposure to Arg-C results in the disappearance of βPKC (Orr, et al.). The present experiment tests whether peptides derived from the WD-40 region of RACK1 alter the sensitivity of βPKC to endopeptidase Arg-C.
The methods used to assay Arg-C sensitivity are a modification of methods described by Orr, et al. Rat brain PKC (~5 nM) was incubated at room temperature in 500 μl of 20 mM Tris-HCl buffer (pH 7.5) alone or with Arg-C (5 units/ml) in the presence or absence of the indicated peptides (final concentration 10 μM or as indicated), PS, DG, and calcium (as indicated). 50 μl aliquots were removed into 20 μl of sample buffer during the reaction as indicated (samples in all the lanes were incubated for 30 minutes, except lanes 5, and 6, which were incubated for 5 and 15 minutes, respectively). The samples were boiled for 10 minutes at 80° C. and loaded onto 8% SDS-PAGE. βPKC was detected by Western blot analysis using anti-βPKC antibodies as described in Examples 6 and 8.
PKC was incubated for the indicated time alone (lane 1) or in the presence of Arg-C (lanes 2-9), with DG (0.8 μg/ml), PS (50 μg/ml) and CaCl2 (1 mM; lane 2), with PS (50 μg/ml) and CaCl2 (1 mM; lane 3), with PS (2.5 μg/ml) and CaCl2 (50 μM; lane 4); with PS (2.5 μg/ml), CaCl2 (50 μM) and with either peptide rVI (SEQ ID NO:7; 10 μM; lanes 5-7), control peptide (SEQ ID NO: 9; lane 8) or with peptide I (SEQ ID) NO:1; lane 9).

Sequence of βPKC (Rattus norvegicus, UniProt P68403) (P68403 whole entry, the tested form may be a part): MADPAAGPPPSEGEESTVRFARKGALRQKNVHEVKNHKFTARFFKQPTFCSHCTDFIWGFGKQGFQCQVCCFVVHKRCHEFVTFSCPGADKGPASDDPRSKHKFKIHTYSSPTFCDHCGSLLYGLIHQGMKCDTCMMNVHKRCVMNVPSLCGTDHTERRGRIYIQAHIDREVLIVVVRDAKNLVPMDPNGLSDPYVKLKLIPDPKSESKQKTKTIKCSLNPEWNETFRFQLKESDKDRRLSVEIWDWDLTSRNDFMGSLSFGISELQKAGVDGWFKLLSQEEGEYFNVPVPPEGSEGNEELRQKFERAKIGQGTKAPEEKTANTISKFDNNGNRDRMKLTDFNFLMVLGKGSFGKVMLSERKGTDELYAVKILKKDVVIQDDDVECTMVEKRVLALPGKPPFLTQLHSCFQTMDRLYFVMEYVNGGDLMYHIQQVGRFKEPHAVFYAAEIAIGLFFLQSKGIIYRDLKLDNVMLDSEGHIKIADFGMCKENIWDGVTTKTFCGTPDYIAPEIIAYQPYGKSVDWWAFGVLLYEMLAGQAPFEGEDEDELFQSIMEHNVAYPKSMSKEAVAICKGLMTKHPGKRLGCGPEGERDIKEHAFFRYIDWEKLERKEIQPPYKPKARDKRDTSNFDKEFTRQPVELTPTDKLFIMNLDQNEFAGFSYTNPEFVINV

Regarding “peptide I: 15-residue peptide homologous to a sequence in the sixth WD-40 repeat of RACK1; PKC antagonist (KGDYEKILVALCGGN)”, in the test with βPKC [1] (60 minutes after addition of insulin), the “effect on insulin (hormone)-induced βPKC translocation” value was “inhibited insulin-induced βPKC translocation”. Besides, the “βPKC distribution / translocation in the absence of insulin treatment” value with βPKC [1] (homogenate 60 minutes after microinjection) was “did not affect βPKC distribution”. Besides, the “nicking of βPKC by Arg-C (78 kDa fragment) at low concentrations of activators” value in the test with βPKC [2] is “nicking of βPKC did not occur”.
